Patent US4816393A, “Nucleoside triphosphate-dependent 1-methylhydantoinase, a process for obtaining it and the use thereof” (Boehringer Mannheim GmbH, priority 1984, dated 1989)
Like-named read-outs stand apart in the source and are kept apart here.

How the values were obtained:
1-methylhydantoinase [1] = assay: Michaelis constants of 1-methylhydantoinase; format: biochemical, Arthrobacter species DSM 2563; conditions: pH 7.8
1-methylhydantoinase [2] = assay: Activators of 1-methylhydantoinase; format: biochemical, Arthrobacter species DSM 2563
Protocol: Relative activity in % (30 mmol/liter ammonium sulphate (AS)=100)
(§1) The activity determination was carried out as follows: […]
(§2) 2. 1-Methylhydantoin solution: 10 mmol/liter
(§3) Wavelength 546 mn; T=25° C.; light path 1 cm.; final volume 2.03 ml.; extinction coefficient of the dye formed=13 cm^2 /μmol. […]
(§4) ^++ For the investigation according to Points 2, 3b, 4, 5 and 6 given
(§5) 4. Calculation: [formula] Remark: ΔA/min. must not to be more than 0.66; otherwise dilute sample. Lag phase about 5 minutes.

1-methylhydantoinase [3] = assay: Nucleotide specificity of 1-methylhydantoinase (via carbamoylsarcosinamidohydrolase + sarcosine oxidase); format: biochemical, Arthrobacter species DSM 2563; conditions: nucleotide 4 mmol/liter
Protocol: Relative activity in % (ATP=100) determined via the reaction sequence catalyzed by carbamoylsarcosinamidohydrolase+sarcosine oxidase:
as §1, §2, §3, §4, §5

1-methylhydantoinase [4] = assay: Inhibitors of 1-methylhydantoinase; format: biochemical, Arthrobacter species DSM 2563; conditions: for relative activity %: 7.5 mM Mg++ in the reaction mixture
Protocol: as §1, §2, §3, §4, §5

1-methylhydantoinase [5] = assay: Metal ion dependence of 1-methylhydantoinase activity; format: biochemical, Arthrobacter species DSM 2563
Protocol: Relative activity in % (5 mmol/liter magnesium chloride=100)
as §1
2. 1-Methylhydantoin solution: 10 mmol/liter […]
as §4, §5

1-methylhydantoinase [6] = assay: Enzymatic colour test for the determination of creatinine; format: biochemical
Text: 1. Enzymatic colour tetst for the determination of 1-methylhydantoin (1-methylhydantoinase/N-carbamoylsarcosinamidohydrolase/sarcosine oxidase reaction with peroxidase/4-aminoantipyrine/2,4,6-tribromo-3-hydroxybenzoicacid colour indicator system) […]
Corresponding to reagent 1.1. of Example 5, however with the addition of creatinine iminohydrolase, 2 U/ml. (final concentration).
Corresponding to Point 1.2 of Example 5 but, as sample, there are used aqueous creatinine solutions (0.0877 to 1.754 mmol/liter) and the incubation period for P and RL is prolonged to 20 minutes.

[7] = activator substance 30 mmol/liter

Q: With `CN1CC(=O)NC1=O` [1-methylhydantoin] as the compound, how does the Km (1-methylhydantoinase [1]; 0.15 mol/liter TES, via ATP, read-out: Km 1-methylhydantoin) read?
A: Its Km is 20 µM.

Q: With `N.N.O=S(=O)(O)O` [(NH4)2 SO4, ammonium sulphate] as the compound, how does the “Relative activity in % (30 mmol/liter ammonium sulphate (AS)=100)” value (1-methylhydantoinase [2]; [7]) read?
A: The value was 100%.

Q: What about the “Relative activity in % (30 mmol/liter ammonium sulphate (AS)=100)” value (1-methylhydantoinase [2]; activator substance 10 mol/liter) of the same compound?
A: The value was 95%.

Q: How did the “Relative activity in % (ATP=100)” value (1-methylhydantoinase [3]) turn out when `Nc1ncnc2c1ncn2[C@@H]1O[C@H](COP(=O)(O)OP(=O)(O)O)[C@@H](O)[C@H]1O` [ADP] was run?
A: The value was 1%.

Q: `Nc1ncnc2c1ncn2[C@@H]1O[C@H](COP(=O)(O)O)[C@@H](O)[C@H]1O` [AMP] was tested. Which “Relative activity in % (ATP=100)” value (1-methylhydantoinase [3]) did it give?
A: Its value is 0%.

Q: For `Nc1ncnc2c1ncn2[C@@H]1O[C@H](COP(=O)(O)OP(=O)(O)OP(=O)(O)O)[C@@H](O)[C@H]1O` [ATP, adenosine-5'-triphosphate], which Km (1-methylhydantoinase [1]; TES 0.15 mol/liter, via sarcosine, read-out: Km ATP) is on record?
A: The Km was 800 µM.

Q: And the “Relative activity in % (ATP=100)” value (1-methylhydantoinase [3])?
A: Its value is 100%.

Q: For `Nc1ccn([C@@H]2O[C@H](COP(=O)(O)OP(=O)(O)OP(=O)(O)O)[C@@H](O)[C@H]2O)c(=O)n1` [CTP], which “Relative activity in % (ATP=100)” value (1-methylhydantoinase [3]) is on record?
A: Its value is 1.5%.

Q: With `O=C(O)CN(CCN(CC(=O)O)CC(=O)O)CC(=O)O` [EDTA] as the compound, how does the “Inhibition (in words)” value (1-methylhydantoinase [4]) read?
A: Its value is “Significant inhibition”.

Q: And the relative activity % (1-methylhydantoinase [4]; EDTA 5 mol/liter (so in the source))?
A: The relative activity % was 100%.

Q: What about the relative activity % (1-methylhydantoinase [4]; EDTA 10 mol/liter (so in the source)) of the same compound?
A: The relative activity % was 42%.

Q: What about the relative activity % (1-methylhydantoinase [4]; EDTA 50 mol/liter (so in the source)) of the same compound?
A: Its relative activity % is 2%.

Q: `Nc1nc2c(ncn2[C@@H]2O[C@H](COP(=O)(O)OP(=O)(O)OP(=O)(O)O)[C@@H](O)[C@H]2O)c(=O)[nH]1` [GTP] was tested. Which “Relative activity in % (ATP=100)” value (1-methylhydantoinase [3]) did it give?
A: Its value is 7%.

Q: How did the “Relative activity in % (30 mmol/liter ammonium sulphate (AS)=100)” value (1-methylhydantoinase [2]; [7]) turn out when `O=S(=O)([O-])[O-].[K+].[K+]` [K2 SO4] was run?
A: The value was 59%.

Q: How did the “Relative activity in % (30 mmol/liter ammonium sulphate (AS)=100)” value (1-methylhydantoinase [2]; [7]) turn out when `O=S(=O)([O-])[O-].[Li+].[Li+]` [Li2 SO4] was run?
A: The value was 40%.

Q: With `[Cl-].[Cl-].[Mg+2]` [MgCl2, magnesium chloride] as the compound, how does the “Relative activity in % (5 mmol/liter magnesium chloride=100)” value (1-methylhydantoinase [5]; metal salt 1 mmol/liter) read?
A: The value was 83%.

Q: What about the “Relative activity in % (5 mmol/liter magnesium chloride=100)” value (1-methylhydantoinase [5]; metal salt 5 mmol/liter) of the same compound?
A: The value was 100%.

Q: And the “Relative activity in % (5 mmol/liter magnesium chloride=100)” value (1-methylhydantoinase [5]; metal salt 10 mmol/liter)?
A: The value was 98%.

Q: With `[Cl][Mn][Cl]` [MnCl2] as the compound, how does the “Relative activity in % (5 mmol/liter magnesium chloride=100)” value (1-methylhydantoinase [5]; metal salt 5 mmol/liter) read?
A: Its value is 60%.

Q: `Cl.N` [NH4 Cl, ammonium chloride] was tested. Which “Relative activity in % (30 mmol/liter ammonium sulphate (AS)=100)” value (1-methylhydantoinase [2]; [7]) did it give?
A: Its value is 91%.

Q: Which “Relative activity in % (30 mmol/liter ammonium sulphate (AS)=100)” value (1-methylhydantoinase [2]; [7]) does the source give for `CC(=O)O` [NH4 acetate] here?
A: Its value is 98%.

Q: Which “Activation (in words)” value (1-methylhydantoinase [2]) does the source give for `N` [NH4^+] here?
A: The value was “Significant activation”.

Q: How did the “Relative activity in % (30 mmol/liter ammonium sulphate (AS)=100)” value (1-methylhydantoinase [2]; [7]) turn out when `O=S(=O)([O-])[O-].[Na+].[Na+]` [Na2 SO4] was run?
A: The value was 39%.

Q: For `O=P([O-])([O-])OP(=O)([O-])OP(=O)([O-])[O-].[Na+].[Na+].[Na+].[Na+].[Na+]` [Na tripolyphosphate], which “Relative activity in % (ATP=100)” value (1-methylhydantoinase [3]) is on record?
A: Its value is 0%.

Q: For `[Cl-].[Na+]` [NaCl], which “Relative activity in % (30 mmol/liter ammonium sulphate (AS)=100)” value (1-methylhydantoinase [2]; [7]) is on record?
A: The value was 41%.

Q: Which “Inhibition (in words)” value (1-methylhydantoinase [4]) does the source give for `[F-].[Na+]` [NaF] here?
A: Its value is “Significant inhibition”.

Q: What about the inhibition (1-methylhydantoinase [4]; 1×10^-2 mol/liter) of the same compound?
A: Its inhibition is 100%.

Q: How did the “Relative activity in % (30 mmol/liter ammonium sulphate (AS)=100)” value (1-methylhydantoinase [2]; [7]) turn out when `O=C(O)O` [NaHCO3] was run?
A: Its value is 40%.

Q: For `O=P(O)(O)OP(=O)(O)O` [PPi, pyrophosphate], which “Relative activity in % (ATP=100)” value (1-methylhydantoinase [3]) is on record?
A: Its value is 0%.

Q: For `Cc1cn([C@H]2C[C@H](O)[C@@H](COP(=O)(O)OP(=O)(O)OP(=O)(O)O)O2)c(=O)[nH]c1=O` [TTP], which “Relative activity in % (ATP=100)” value (1-methylhydantoinase [3]) is on record?
A: The value was 0%.

Q: How did the “Relative activity in % (ATP=100)” value (1-methylhydantoinase [3]) turn out when `O=c1ccn([C@@H]2O[C@H](COP(=O)(O)OP(=O)(O)OP(=O)(O)O)[C@@H](O)[C@H]2O)c(=O)[nH]1` [UTP] was run?
A: Its value is 0%.

Q: For `[Cl-].[Cl-].[Zn+2]` [ZnCl2], which “Relative activity in % (5 mmol/liter magnesium chloride=100)” value (1-methylhydantoinase [5]; metal salt 5 mmol/liter) is on record?
A: The value was 24%.

Q: `CN(CC(=O)O)C(=N)N` [creatine] was tested. Which colour reaction (1-methylhydantoinase [6]; creatine solution (884 μmol/liter) as sample instead of creatinine, test batch 8.2) did it give?
A: The colour reaction was “no colour reaction”.

Q: Which colour reaction (1-methylhydantoinase [6]; creatinine iminohydrolase omitted from Reagent 8.1) does the source give for `CN1CC(=O)NC1=N` [creatinine] here?
A: The colour reaction was “no colour reaction”.

Q: How did the “Relative activity in % (ATP=100)” value (1-methylhydantoinase [3]) turn out when Na hexametaphosphate was run?
A: The value was 0%.
